From patent US10131652B2, “Pyrimidinyloxy benzene derivatives as herbicides” (E. I. DU PONT DE NEMOURS AND COMPANY, priority 2014, dated 2018)

Legend:
Assay type in all cases: in vivo
[1] = tested on: barnyardgrass (Echinochloa crus-galli); test: Test C flooded paddy test plant response; details: Flood, 250 g ai/ha; scale of 0 to 100 where 0 is no effect and 100 is complete control; 13 to 15 days
Procedure, shortened: (§1)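 2-leaf plants; flood 3 cm, cpd into paddy water; greenhouse 13–15 d; visual score vs untreated, 0 = no effect, 100 = complete control; dash = no result.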

rice (Oryza sativa) = test: Test C flooded paddy test plant response; details: Flood, 250 g ai/ha; scale of 0 to 100 where 0 is no effect and 100 is complete control; 13 to 15 days
Procedure, shortened: as §1

[2] = tested on: ducksalad (Heteranthera limosa); test: Test C flooded paddy test plant response; details: Flood, 250 g ai/ha; scale of 0 to 100 where 0 is no effect and 100 is complete control; 13 to 15 days
Procedure, shortened: as §1

[3] = tested on: small-flower umbrella sedge (Cyperus difformis); test: Test C flooded paddy test plant response; details: Flood, 250 g ai/ha; scale of 0 to 100 where 0 is no effect and 100 is complete control; 13 to 15 days
Procedure, shortened: as §1

[4] = tested on: large (Lg) crabgrass (Digitaria sanguinalis); test: Test B pre-/postemergence plant response
Procedure, shortened: (§2)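 Ratings reflect visual injury versus untreated controls, from 0 for no effect to 100 for complete control, assessed roughly 10 days after treatment. Formulation: non-phytotoxic solvent mix with surfactant; pre- and postemergence sprays on plants grown in loam soil and sand.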

[5] = tested on: barnyardgrass (Echinochloa crus-galli); test: Test B pre-/postemergence plant response
Procedure, shortened: as §2

[6] = tested on: wheat (Triticum aestivum); test: Test B pre-/postemergence plant response
Procedure, shortened: as §2

[7] = tested on: pigweed (Amaranthus retroflexus); test: Test B pre-/postemergence plant response
Procedure, shortened: as §2

[8] = tested on: giant foxtail (Setaria faberii); test: Test B pre-/postemergence plant response
Procedure, shortened: as §2

corn (Zea mays) = test: Test B pre-/postemergence plant response
Procedure, shortened: as §2

[9] = tested on: morningglory (Ipomoea spp.); test: Test B pre-/postemergence plant response
Procedure, shortened: as §2

[10] = tested on: velvetleaf (Abutilon theophrasti); test: Test B pre-/postemergence plant response
Procedure, shortened: as §2

[11] = 125 g ai/ha, postemergence, 0 to 100 scale, 0 no effect, 100 complete control
[12] = Postemergence, 500 g ai/ha, 0 to 100 scale (0 no effect, 100 complete control)
[13] = Preemergence, 125 g ai/ha, 0 to 100 scale (0 no effect, 100 complete control)
[14] = Preemergence, 500 g ai/ha, 0 to 100 scale where 0 is no effect and 100 is complete control
[15] = 500 g ai/ha, postemergence, 0 to 100 scale, 0 no effect, 100 complete control

Cc1noc(C)c1-c1c(C#N)cccc1Oc1ncc(Cl)cn1 [Compound 134]
20: Plant response rating, Barnyardgrass [5, 11] | Wheat plant response rating [6, 13] | Plant response rating, Wheat [6, 14] | Corn plant response rating (corn (Zea mays); [13])
30: Plant response rating, Wheat [6, 12]
70: Barnyardgrass plant response rating [5, 13]
40: Ducksalad plant response rating [2] | Plant response rating, Velvetleaf [10, 11] | Velvetleaf plant response rating [10, 13]
0: Barnyardgrass plant response rating [1] | Rice plant response rating (rice (Oryza sativa))
80: Plant response rating, Corn (corn (Zea mays); [12]) | Plant response rating, Morningglory [9, 14]
75: Sedge, Umbrella plant response rating [3]
100: Plant response rating, Crabgrass, Large [4, 12] | Crabgrass, Large plant response rating [4, 13] | Plant response rating, Crabgrass, Large [4, 14] | Plant response rating, Pigweed [7, 12] | Pigweed plant response rating [7, 13] | Plant response rating, Pigweed [7, 14] | Plant response rating, Foxtail, Giant [8, 14] | Plant response rating, Velvetleaf [10, 14]
90: Plant response rating, Barnyardgrass [5, 12] | Plant response rating, Barnyardgrass [5, 14] | Plant response rating, Foxtail, Giant [8, 12] | Foxtail, Giant plant response rating [8, 13] | Plant response rating, Morningglory [9, 12] | Plant response rating, Velvetleaf [10, 12]
10: Plant response rating, Crabgrass, Large [4, 11] | Plant response rating, Wheat [6, 11] | Plant response rating, Foxtail, Giant [8, 11] | Plant response rating, Corn (corn (Zea mays); [11]) | Plant response rating, Morningglory [9, 11] | Morningglory plant response rating [9, 13]
60: Plant response rating, Pigweed [7, 11] | Plant response rating, Corn (corn (Zea mays); [14])

Clc1ccc(-c2c(Br)cccc2Oc2ncc(Cl)cn2)nc1 [Compound 135]
0: Barnyardgrass plant response rating [1] | Rice plant response rating (rice (Oryza sativa)) | Ducksalad plant response rating [2] | Sedge, Umbrella plant response rating [3] | Plant response rating, Wheat [6, 11] | Wheat plant response rating [6, 13] | Plant response rating, Wheat [6, 14] | Corn plant response rating (corn (Zea mays); [13]) | Plant response rating, Corn (corn (Zea mays); [14]) | Morningglory plant response rating [9, 13]
50: Plant response rating, Crabgrass, Large [4, 12] | Plant response rating, Morningglory [9, 12]
30: Plant response rating, Corn (corn (Zea mays); [12])
80: Crabgrass, Large plant response rating [4, 13] | Plant response rating, Velvetleaf [10, 12]
10: Plant response rating, Crabgrass, Large [4, 11] | Plant response rating, Barnyardgrass [5, 11] | Barnyardgrass plant response rating [5, 13] | Plant response rating, Wheat [6, 12] | Plant response rating, Foxtail, Giant [8, 11] | Plant response rating, Corn (corn (Zea mays); [11]) | Plant response rating, Morningglory [9, 14]
60: Plant response rating, Barnyardgrass [5, 14] | Plant response rating, Foxtail, Giant [8, 12] | Foxtail, Giant plant response rating [8, 13] | Plant response rating, Velvetleaf [10, 14]
40: Plant response rating, Barnyardgrass [5, 12] | Plant response rating, Velvetleaf [10, 11]
90: Pigweed plant response rating [7, 13]
20: Plant response rating, Morningglory [9, 11] | Velvetleaf plant response rating [10, 13]
100: Plant response rating, Crabgrass, Large [4, 14] | Plant response rating, Pigweed [7, 11] | Plant response rating, Pigweed [7, 12] | Plant response rating, Pigweed [7, 14] | Plant response rating, Foxtail, Giant [8, 14]

Cn1nc(C(F)(F)F)cc1-c1c(C#N)cccc1Oc1ncc(Cl)cn1 [Compound 136]
100: Plant response rating, Crabgrass, Large [4, 14] | Plant response rating, Barnyardgrass [5, 14] | Plant response rating, Pigweed [7, 12] | Plant response rating, Pigweed [7, 14] | Plant response rating, Foxtail, Giant [8, 14] | Plant response rating, Velvetleaf [10, 12] | Plant response rating, Velvetleaf [10, 14]
30: Plant response rating, Wheat [6, 14]
80: Plant response rating, Foxtail, Giant [8, 12]
0: Barnyardgrass plant response rating [1] | Rice plant response rating (rice (Oryza sativa))
40: Ducksalad plant response rating [2] | Sedge, Umbrella plant response rating [3] | Plant response rating, Wheat [6, 12] | Plant response rating, Corn (corn (Zea mays); [14])
90: Plant response rating, Crabgrass, Large [4, 12] | Plant response rating, Barnyardgrass [5, 12] | Plant response rating, Morningglory [9, 12] | Plant response rating, Morningglory [9, 14]
70: Plant response rating, Corn (corn (Zea mays); [12])

Clc1cnc(Oc2ccccc2-c2nccs2)nc1 [Compound 199]
0: Barnyardgrass plant response rating [1] | Rice plant response rating (rice (Oryza sativa)) | Ducksalad plant response rating [2] | Plant response rating, Crabgrass, Large [4, 11] | Crabgrass, Large plant response rating [4, 13] | Plant response rating, Barnyardgrass [5, 11] | Plant response rating, Barnyardgrass [5, 12] | Barnyardgrass plant response rating [5, 13] | Plant response rating, Barnyardgrass [5, 14] | Plant response rating, Wheat [6, 11] | Plant response rating, Wheat [6, 12] | Wheat plant response rating [6, 13] | Plant response rating, Wheat [6, 14] | Pigweed plant response rating [7, 13] | Plant response rating, Foxtail, Giant [8, 11] | Plant response rating, Foxtail, Giant [8, 12] | Foxtail, Giant plant response rating [8, 13] | Plant response rating, Foxtail, Giant [8, 14] | Plant response rating, Corn (corn (Zea mays); [11]) | Plant response rating, Corn (corn (Zea mays); [12]) | Corn plant response rating (corn (Zea mays); [13]) | Plant response rating, Corn (corn (Zea mays); [14]) | Plant response rating, Morningglory [9, 11] | Morningglory plant response rating [9, 13] | Plant response rating, Morningglory [9, 14] | Plant response rating, Velvetleaf [10, 11] | Velvetleaf plant response rating [10, 13]
80: Sedge, Umbrella plant response rating [3]
10: Plant response rating, Crabgrass, Large [4, 12] | Plant response rating, Crabgrass, Large [4, 14] | Plant response rating, Pigweed [7, 11] | Plant response rating, Morningglory [9, 12] | Plant response rating, Velvetleaf [10, 12] | Plant response rating, Velvetleaf [10, 14]
30: Plant response rating, Pigweed [7, 12] | Plant response rating, Pigweed [7, 14]

O=[N+]([O-])c1cc(Cl)cnc1-c1ccccc1Oc1ncc(Cl)cn1 [Compound 201]
0: Barnyardgrass plant response rating [1] | Rice plant response rating (rice (Oryza sativa)) | Ducksalad plant response rating [2] | Sedge, Umbrella plant response rating [3] | Plant response rating, Crabgrass, Large [4, 11] | Plant response rating, Crabgrass, Large [4, 15] | Crabgrass, Large plant response rating [4, 13] | Plant response rating, Crabgrass, Large [4, 14] | Plant response rating, Barnyardgrass [5, 11] | Plant response rating, Barnyardgrass [5, 15] | Barnyardgrass plant response rating [5, 13] | Plant response rating, Barnyardgrass [5, 14] | Plant response rating, Wheat [6, 11] | Plant response rating, Wheat [6, 15] | Wheat plant response rating [6, 13] | Plant response rating, Wheat [6, 14] | Plant response rating, Pigweed [7, 11] | Plant response rating, Pigweed [7, 15] | Pigweed plant response rating [7, 13] | Plant response rating, Pigweed [7, 14] | Plant response rating, Foxtail, Giant [8, 11] | Plant response rating, Foxtail, Giant [8, 15] | Foxtail, Giant plant response rating [8, 13] | Plant response rating, Foxtail, Giant [8, 14] | Plant response rating, Corn (corn (Zea mays); [11]) | Plant response rating, Corn (corn (Zea mays); [15]) | Corn plant response rating (corn (Zea mays); [13]) | Plant response rating, Corn (corn (Zea mays); [14]) | Plant response rating, Morningglory [9, 11] | Plant response rating, Morningglory [9, 15] | Morningglory plant response rating [9, 13] | Plant response rating, Morningglory [9, 14] | Plant response rating, Velvetleaf [10, 11] | Plant response rating, Velvetleaf [10, 15] | Velvetleaf plant response rating [10, 13] | Plant response rating, Velvetleaf [10, 14]
